Measurements: patent US9669031B2, “MNK inhibitors and methods related thereto” (eFFECTOR Therapeutics, Inc., priority 2014, dated 2017)
Structures can show the parent of a compound that is named as a salt.

Tests used:
Mnk1 = Mnk1 (Homo sapiens (Human), UniProt Q9BUB5); experiment: biochemical
Mnk2 = Mnk2 (Homo sapiens (Human), UniProt Q9HBH9); experiment: biochemical
in vivo = conditions: female, Balb/c, mouse, po, 10 mg/kg; for AUC(0-t): AUClast; for half-life: T½
[1] = female, Balb/c, mouse, in vivo, po, 10 mg/kg
[2] = Pharmacokinetics in Balb/c mice, single intravenous bolus administration; type: in vivo; conditions: intravenous bolus 1 mg/kg, formulation 10DMA/15EtOH/35PEG300/40D5W, gender F

Sequence of Mnk2 (Q9HBH9 whole entry): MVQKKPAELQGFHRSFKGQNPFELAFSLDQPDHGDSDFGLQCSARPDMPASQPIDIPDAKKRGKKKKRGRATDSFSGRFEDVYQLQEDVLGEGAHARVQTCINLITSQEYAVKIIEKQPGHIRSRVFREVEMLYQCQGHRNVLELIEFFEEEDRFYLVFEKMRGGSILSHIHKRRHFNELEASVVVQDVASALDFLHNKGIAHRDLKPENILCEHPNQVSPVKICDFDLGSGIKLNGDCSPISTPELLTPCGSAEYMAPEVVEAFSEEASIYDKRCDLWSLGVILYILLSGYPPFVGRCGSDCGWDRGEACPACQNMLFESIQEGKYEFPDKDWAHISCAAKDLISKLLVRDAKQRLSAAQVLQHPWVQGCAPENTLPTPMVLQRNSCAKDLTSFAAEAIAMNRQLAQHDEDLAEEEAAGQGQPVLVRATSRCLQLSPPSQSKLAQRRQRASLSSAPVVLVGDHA
Sequence of Mnk1 (Q9BUB5 whole entry): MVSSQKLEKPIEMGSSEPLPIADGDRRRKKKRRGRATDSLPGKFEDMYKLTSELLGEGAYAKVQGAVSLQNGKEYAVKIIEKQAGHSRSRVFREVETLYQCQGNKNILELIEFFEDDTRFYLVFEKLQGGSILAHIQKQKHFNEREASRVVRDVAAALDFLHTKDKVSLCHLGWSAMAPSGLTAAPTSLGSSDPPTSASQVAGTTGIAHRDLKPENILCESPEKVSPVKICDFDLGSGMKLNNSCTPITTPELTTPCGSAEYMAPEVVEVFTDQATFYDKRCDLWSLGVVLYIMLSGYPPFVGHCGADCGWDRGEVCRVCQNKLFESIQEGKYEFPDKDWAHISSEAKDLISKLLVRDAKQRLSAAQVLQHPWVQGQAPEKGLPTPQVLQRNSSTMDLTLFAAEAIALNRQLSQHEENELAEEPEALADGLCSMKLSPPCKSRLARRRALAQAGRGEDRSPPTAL

Row | Structure (SMILES) | IC50 (Mnk1) [nM] | IC50 (Mnk2) [nM] | AUC(0-t) (in vivo) [ng·h/mL] | Cmax (in vivo) [ng/mL] | Tmax (in vivo) [min] | half-life (in vivo) [min] | Tlast [1] [h] | also measured
1 | Cl.Nc1cc(Nc2cc(Cl)c3n(c2=O)C2(CCC(F)(F)CC2)NC3=O)ncn1 [Cpd. No. 99, 6-[(6-aminopyrimidin-4-yl)amino]-8-chloro-4′,4′-difluoro-spiro[2H-imidazo[1,5-a]pyridine-3,1′-cyclohexane]-1,5-dione hydrochloride] | < 10 | < 10 | 1380 | 400 | 18 | 96 | 8 | –
2 | Cl.O=C1NC2(CCCNC2)n2c1c(Cl)cc(Nc1cc(NC(=O)C3CC3)ncn1)c2=O (stereo not drawn) [Cpd. No. 60, N-(6-((8-chloro-1,5-dioxo-1,5-dihydro-2H-spiro[imidazo[1,5-a]pyridine-3,3′-piperidin]-6-yl)amino)pyrimidin-4-yl)cyclopropanecarboxamide hydrochloride] | < 10 | – | 78.2 | 36 | 60 | 133 | 4 | –
3 | CC1(C2CCCC2)N(C#N)C(=O)c2ccc(Nc3cc(N)ncn3)c(=O)n21 (stereo not drawn) [Cpd. No. 118, 6-[(6-aminopyrimidin-4-yl)amino]-3-cyclopentyl-3-methyl-1,5-dioxo-imidazo[1,5-a]pyridine-2-carbonitrile] | – | < 10 | – | – | – | – | – | –
4 | Cc1cc(Nc2cc(N)ncn2)c(=O)n2c1C(=O)NC2(C)C.Cl [Cpd. No. 102, 6-((6-aminopyrimidin-4-yl)amino)-3,3,8-trimethyl-2,3-dihydroimidazo[1,5-a]pyridine-1,5-dione hydrochloride] | – | < 10 | – | 1800 | 18 | 84 | – | –
5 | Cl.Cl.Nc1cc(Nc2cc(Cl)c3n(c2=O)C2(CCNCC2)NC3=O)ncn1 [Cpd. No. 108, 6-((6-aminopyrimidin-4-yl)amino)-8-chloro-2H-spiro[imidazo[1,5-a]pyridine-3,4′-piperidine]-1,5-dione dihydrochloride] | < 10 | – | – | 44 | 18 | 18 | – | –
6 | O=C1NC2(CNC2)n2c1c(Cl)cc(Nc1cc(NC(=O)C3CC3)ncn1)c2=O [Cpd. No. 86, N-[6-[(8-chloro-1,5-dioxo-spiro[2H-imidazo[1,5-a]pyridine-3,3′-azetidine]-6-yl)amino]pyrimidin-4-yl]cyclopropanecarboxamide hydrochloride] | < 10 | – | – | – | – | – | – | –
7 | O=C1NC2(CCNC2)n2c1ccc(Nc1ccncn1)c2=O (stereo not drawn) [Cpd. No. 26, 6-(pyrimidin-4-ylamino)-1H-spiro[imidazo[1,5-a]pyridine-3,3′-pyrrolidine]-1,5(2H)-dione] | 10 to 100 | – | – | – | – | – | – | –
8 | Nc1cc(Nc2cc(Cl)c3n(c2=O)C2(CCCC2)NC3=O)ncn1 [Cpd. No. 94, 6-[(6-aminopyrimidin-4-yl)amino]-8-chloro-spiro[2H-imidazo[1,5-a]pyridine-3,1′-cyclopentane]-1,5-dione] | < 10 | – | 6070 | 1800 | 30 | 120 | 8 | AUC(0-inf) ([2]; female, mouse, plasma, read-out: AUCINF_obs): 812 ng·h/mL; half-life ([2]; female, mouse, plasma, read-out: T½ (converted)): 349 min; Vd ([2]; female, mouse, plasma, read-out: Vss): 12.2 L/kg; Cl_obs [2]: 20.5 mL/min/kg
9 | Cc1cc(Nc2cc(N)ncn2)c(=O)n2c1C(=O)NC2(C)c1cccc(F)c1 (stereo not drawn) [Cpd. No. 101, 6-((6-aminopyrimidin-4-yl)amino)-3-(3-fluorophenyl)-3,8-dimethyl-2,3-dihydroimidazo[1,5-a]pyridine-1,5-dione] | < 10 | – | – | – | – | – | – | –
10 | CC1(c2cc(F)cc(Cl)c2)NC(=O)c2ccc(Nc3ccncn3)c(=O)n21 (stereo not drawn) [Cpd. No. 28, 3-(3-chloro-5-fluorophenyl)-3-methyl-6-(pyrimidin-4-ylamino)-2,3-dihydroimidazo[1,5-a]pyridine-1,5-dione] | 10 to 100 | – | – | – | – | – | – | –
